# Data from patent US20230248627A1, “COMPOSITION FOR HAIR FOLLICLE MODULATION, METHODS AND USES THEREOF” (priority 2020, published 2023).
# Structures can show the parent of a compound that is named as a salt.
# Legend:
# [1] = system: human scalp; experiment: Pilot clinical study: hair curvature index after topical scalp application; format: in vivo; settings: for visible effect on hair shape: after 5 weeks of treatment; for Effectiveness (% of volunteers) / Hair shape change (% of control), max. / Hair shape change (% of control), mean: 5 weeks, 3 times per week; for Hair shape change (% of control), max. / Hair shape change (% of control), mean: curvature index
# Text: This example discloses the treatment of human scalp with a formulation containing a modulation bioactive agent for straightening the hair.
# The bioactive agent used in this example was Midodrine hydrochloride as straightening agent in a formulation containing water, a thickener agent with emulsifying properties - Lecigel™, a preservative agent – Euxyl® PE 9010, denaturing alcohol and Transcutol® CG.
# The volunteers for the application test of the formulation with the modulation bioactive agent Midodrine hydrochloride had curly hair.
# Each volunteer received the formulation without the agent Midodrine hydrochloride and the formulation with the agent Midodrine hydrochloride.
# (§1) On each volunteer, the hair was shaved in two different posterior scalp locations, of approximately 1 cm^2 each, and the formulations were applied for 5 weeks, three times a week.
# The formulations with and without Midodrine were applied directly on scalp. Ten microliters per 1 cm^2 of the control formulation without Midodrine hydrochloride were applied to one of the two shaved scalp areas while ten microliters per 1 cm^2 of the formulation with Midodrine hydrochloride were applied to the other shaved scalp area.
# After the 15th application of formulations with and without the modulation agent, a final picture was taken showing both sites of application, the growth rate of the hairs was measured, and some hairs were plucked for further tests.
# The curvature index was determined after the clinical cosmetic study conclusion, using hairs collected from the scalp areas treated with and without the modulation bioactive agent in a formulation. The control was the hair collected from scalp area treated with the formulation without the modulation bioactive ingredient.
# The effect on curvature index was calculated according to the following formula: […]
# Each hair was individually measured over a white paper (hair in a relaxed form) and a force was applied in order to keep the hair straight (under stress) and, in this way, measure the length of hair in stressed form.
# This example discloses the treatment of human scalp with a formulation containing a modulation bioactive agent for curling the hair.
# The modulation bioactive agent used in this example was Topiramate as curling agent in a formulation containing water, a thickener agent with emulsifying properties - Lecigel™, a preservative agent - Euxyl® PE 9010, denaturing alcohol and Transcutol® CG.
# The volunteers for the application test of the formulation with the modulation agent Topiramate had straight hair.
# Each volunteer received the formulation without the agent Topiramate and the formulation with the agent Topiramate.
# The formulations with and without Topiramate were applied directly on scalp. Ten microliters per 1 cm^2 of the control formulation without Topiramate were applied to one of the two shaved scalp areas while ten microliters per 1 cm^2 of the formulation with Topiramate were applied to the other shaved scalp area.
# (§2) After the 15th application of formulations with and without the modulation bioactive agent, a final picture was taken, the growth rate of the hairs was measured, and some hairs were plucked for further tests.
# The curvature index was determined after the clinical cosmetic study conclusion, using hairs collected from the scalp areas treated with and without the modulation bioactive agent in a formulation. The control was the hair collected from the scalp area treated with the formulation without the modulation bioactive ingredient.
# [2] = system: human scalp; experiment: Pilot clinical study: hair melanin quantification after topical scalp application; format: in vivo; settings: for visible effect on hair colour: after 5 weeks of treatment; for Effectiveness (% of volunteers) / Hair Melanin change (% of control), max.: 5 weeks, 3 times per week
# Protocol: All the results present on the following described examples were performed in a pilot clinical study with intervention of cosmetic products (RNEC number: 92938), not contested by the Portuguese Legal Competent Authorities.
# This example discloses the treatment of human scalp with a formulation containing a modulation bioactive agent for lightening the hair.
# The modulation bioactive agent used in this example was Rivastigmine hydrogen tartrate as lightening agent in a formulation containing water, a thickener agent with emulsifying properties - Lecigel™, a preservative agent - Euxyl® PE 9010, denaturing alcohol and Transcutol® CG.
# The volunteers for the application test of the formulation with the modulation agent Rivastigmine hydrogen tartrate had black to medium brown hair.
# Each volunteer received the formulation without the agent Rivastigmine hydrogen tartrate and the formulation with the agent Rivastigmine hydrogen tartrate.
# as §1
# The formulations with and without Rivastigmine were applied directly on scalp. Ten microliters per 1 cm^2 of the control formulation without Rivastigmine hydrogen tartrate were applied to one of the two shaved scalp areas while ten microliters per 1 cm^2 of the formulation with Rivastigmine hydrogen tartrate were applied to the other shaved scalp area.
# After the 15th application of formulations with and without the modulation agent, a final picture was taken, the growth rate of the hairs was measured, and some hairs were plucked for further tests.
# The hair melanin quantification process was performed after the clinical cosmetic study conclusion, using hairs collected from the scalp areas treated with and without Rivastigmine hydrogen tartrate in a formulation. The control means the hair collected from the scalp area treated with the formulation without Rivastigmine hydrogen tartrate.
# In an embodiment, the method for quantifying melanin in hair was as described by Fernandes B. et al., 2016 [51]. Hair samples were digested in NaOH and the solutions obtained normalized to 1 mg/mL of hair. Complete oxidation of hair lysates was performed with hydrogen peroxide and melanin content in hair samples calculated by fluoresce spectroscopy using a standard curve generated by the fluorescence of oxidized melanin standards. Melanin change in hair treated with a formulation with Rivastigmine was calculated using the following mathematical formula: […]
# This example discloses the treatment of human scalp with a formulation containing a modulation bioactive agent for darkening the hair.
# In an embodiment, the bioactive agent used in this example was Dipyridamole as darkening agent in a formulation containing water, a thickener agent with emulsifying properties - Lecigel™, a preservative agent - Euxyl® PE 9010, denaturing alcohol and Transcutol® CG.
# The volunteers for the application test of the formulation with the modulation bioactive agent Dipyridamole had blond hair of different shades.
# Each volunteer received the formulation without the agent Dipyridamole and the formulation with the agent Dipyridamole.
# In an embodiment, the formulations with and without Dipyridamole were applied directly on scalp. Ten microliters per 1 cm^2 of the control formulation without Dipyridamole were applied to one of the two shaved scalp areas while ten microliters per 1 cm^2 of the formulation with Dipyridamole were applied to the other shaved scalp area.
# as §2
# The hair melanin quantification process was performed after the clinical cosmetic study conclusion, using hairs collected from the scalp areas treated with and without Dipyridamole in a formulation. […]
# [3] = system: human melanocytes (SK-MEL-23 cell line); experiment: Intracellular melanin quantification in melanocytes treated in vitro; format: cell-based; settings: 10 µM dipyridamole, 1% (v/v) DMSO, 3 days, normalized by protein levels
# Protocol: This example discloses an “in vitro” treatment of human melanocytes (SK-MEL-23 cell line) with a solution containing a modulation bioactive agent for darkening the skin.
# In an embodiment, the bioactive agent used in this example was Dipyridamole as darkening agent in a solution containing water and DMSO.
# Cells were seeded on 24-well plates at density of 9.0x10^4 cells/well and treated next day with 10 µM of dipyridamole and 1% (v/v) DMSO. In the control, cells were seeded on 24-well plates at density of 9.0x10^4 cells/well and treated next day with 1% (v/v) DMSO.
# The intracellular melanin quantification was performed after 3 days. The method for quantifying melanin in hair was as described by Fernandes B. et al., 2016 [51]. The melanin contents were normalized by protein levels in each sample (DC Protein assay). Melanin change in cells treated with Dipyridamole was calculated using the following mathematical formula: […]
# [4] = Curling, 1.75% w/w formulation, straight-haired volunteers
# [5] = Straightening, 0.25% w/w formulation, curly-haired volunteers
smiles,measurement,setting,value
CC1(C)O[C@@H]2[C@@H](CO[C@@]3(COS(N)(=O)=O)OC(C)(C)O[C@@H]23)O1 [Topiramate],visible effect on hair shape,"[1]; 1.75% w/w formulation on scalp, straight hair",induced a curling effect
same,Effectiveness (% of volunteers),"[1]; Curling, 1.75% w/w formulation on scalp, straight-haired volunteers",83.3%
same,"Hair shape change (% of control), max.",[1]; [4],-11.0%
same,"Hair shape change (% of control), mean",[1]; [4],-10.0%
"CCN(C)C(=O)Oc1cccc([C@H](C)N(C)C)c1 [Rivastigmine, Rivastigmine hydrogen tartrate]",visible effect on hair colour,[2]; 0.2% w/w formulation on scalp,induced a lightening effect
same,Effectiveness (% of volunteers),"[2]; Lightening, 0.2% w/w formulation on scalp, black to medium brown hair",50.0 % of volunteers
same,"Hair Melanin change (% of control), max.","[2]; Lightening, 0.2% w/w formulation, black to medium brown hair",-26.3%
"COc1ccc(OC)c(C(O)CNC(=O)CN)c1 (stereo not drawn) [Midodrine HCl, Midodrine hydrochloride]",visible effect on hair shape,"[1]; 0.25% w/w formulation on scalp, very curly hair",induced a straightening effect
same,Effectiveness (% of volunteers),"[1]; Straightening, 0.25% w/w formulation on scalp, curly-haired volunteers",75.0%
same,"Hair shape change (% of control), max.",[1]; [5],+120.0%
same,"Hair shape change (% of control), mean",[1]; [5],+76.0%
OCCN(CCO)c1nc(N2CCCCC2)c2nc(N(CCO)CCO)nc(N3CCCCC3)c2n1 [Dipyridamole],increase in melanin production relative to the control experiment,[3],3.5 fold
same,visible effect on hair colour,[2]; 0.01% w/w formulation on scalp,induced a darkening effect
same,Effectiveness (% of volunteers),"[2]; Darkening, 0.01% w/w formulation on scalp, blond hair",67.0 % of volunteers
same,"Hair Melanin change (% of control), max.","[2]; Darkening, 0.01% w/w formulation, blond hair",+57.9%
